Reference: the kinase profiling compilation of Christmann-Franck et al. (2016)

How the values were obtained:
Experiment in all cases: radiometric filter-binding kinase assay, Kinase HotSpot
Conditions in all cases: compound 0.5 µM; ATP 10 µM
AURKA (human) = AURKA (human) (UniProt O14965)
PRKCI (human) = PRKCI (human) (UniProt P41743)
MATK (human) = MATK (human) (UniProt P42679)
JAK2 JH1 JH2 (human) = JAK2 JH1 JH2 (human) (UniProt O60674)
EPHA8 (human) = EPHA8 (human) (UniProt P29322)
IKBKB (human) = IKBKB (human) (UniProt O14920)
DMPK (human) = DMPK (human) (UniProt Q09013)
MAPK9 (human) = MAPK9 (human) (UniProt P45984)
MERTK (human) = MERTK (human) (UniProt Q12866)
FGR (human) = FGR (human) (UniProt P09769)
YES1 (human) = YES1 (human) (UniProt P07947)
TEK (human) = TEK (human) (UniProt Q02763)
PAK4 (human) = PAK4 (human) (UniProt O96013)
PRKCG (human) = PRKCG (human) (UniProt P05129)
PIM2 (human) = PIM2 (human) (UniProt Q9P1W9)
EPHA1 (human) = EPHA1 (human) (UniProt P21709)
PTK2 (human) = PTK2 (human) (UniProt Q05397)
WNK3 (human) = WNK3 (human) (UniProt Q9BYP7)
DYRK2 (human) = DYRK2 (human) (UniProt Q92630)
BRSK1 (human) = BRSK1 (human) (UniProt Q8TDC3)
FGFR1 (human) = FGFR1 (human) (UniProt P11362)
NTRK3 (human) = NTRK3 (human) (UniProt Q16288)
GRK4 (human) = GRK4 (human) (UniProt P32298)
KIT (human) = KIT (human) (UniProt P10721)
STK4 (human) = STK4 (human) (UniProt Q13043)
MAP2K1 (human) = MAP2K1 (human) (UniProt Q02750)
RPS6KA1 KD1 KD2 (human) = RPS6KA1 KD1 KD2 (human) (UniProt Q15418)
EPHA2 (human) = EPHA2 (human) (UniProt P29317)
CAMK2G (human) = CAMK2G (human) (UniProt Q13555)
KDR (human) = KDR (human) (UniProt P35968)
BLK (human) = BLK (human) (UniProt P51451)
PLK3 (human) = PLK3 (human) (UniProt Q9H4B4)
FLT1 (human) = FLT1 (human) (UniProt P17948)
CDK1 CCNA2 (human) = CDK1 CCNA2 (human) (UniProt P06493+P20248)
LIMK1 (human) = LIMK1 (human) (UniProt P53667)
DAPK2 (human) = DAPK2 (human) (UniProt Q9UIK4)
CHEK2 (human) = CHEK2 (human) (UniProt O96017)
AXL (human) = AXL (human) (UniProt P30530)
PAK3 (human) = PAK3 (human) (UniProt O75914)
NTRK1 (human) = NTRK1 (human) (UniProt P04629)
ABL2 (human) = ABL2 (human) (UniProt P42684)
CAMK4 (human) = CAMK4 (human) (UniProt Q16566)

Sequence of PLK3 (human) (Q9H4B4 whole entry, looked up): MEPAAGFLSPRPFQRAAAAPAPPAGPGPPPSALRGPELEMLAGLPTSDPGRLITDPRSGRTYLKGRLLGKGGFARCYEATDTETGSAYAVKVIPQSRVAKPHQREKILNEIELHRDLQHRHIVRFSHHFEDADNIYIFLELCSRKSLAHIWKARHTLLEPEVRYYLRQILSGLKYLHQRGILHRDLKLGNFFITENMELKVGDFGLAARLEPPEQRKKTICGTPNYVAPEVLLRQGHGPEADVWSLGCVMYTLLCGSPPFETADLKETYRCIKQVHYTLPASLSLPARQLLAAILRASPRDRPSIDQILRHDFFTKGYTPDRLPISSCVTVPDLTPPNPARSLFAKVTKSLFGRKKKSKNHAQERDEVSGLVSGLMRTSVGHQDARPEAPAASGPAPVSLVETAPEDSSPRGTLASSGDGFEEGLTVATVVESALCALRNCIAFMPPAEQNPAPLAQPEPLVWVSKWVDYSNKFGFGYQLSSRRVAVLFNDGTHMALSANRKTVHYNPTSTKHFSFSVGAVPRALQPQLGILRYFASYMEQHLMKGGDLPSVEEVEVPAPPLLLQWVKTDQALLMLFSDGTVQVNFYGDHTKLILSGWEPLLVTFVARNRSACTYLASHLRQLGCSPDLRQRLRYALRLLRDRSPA
Sequence of MAPK9 (human) (P45984 whole entry, looked up): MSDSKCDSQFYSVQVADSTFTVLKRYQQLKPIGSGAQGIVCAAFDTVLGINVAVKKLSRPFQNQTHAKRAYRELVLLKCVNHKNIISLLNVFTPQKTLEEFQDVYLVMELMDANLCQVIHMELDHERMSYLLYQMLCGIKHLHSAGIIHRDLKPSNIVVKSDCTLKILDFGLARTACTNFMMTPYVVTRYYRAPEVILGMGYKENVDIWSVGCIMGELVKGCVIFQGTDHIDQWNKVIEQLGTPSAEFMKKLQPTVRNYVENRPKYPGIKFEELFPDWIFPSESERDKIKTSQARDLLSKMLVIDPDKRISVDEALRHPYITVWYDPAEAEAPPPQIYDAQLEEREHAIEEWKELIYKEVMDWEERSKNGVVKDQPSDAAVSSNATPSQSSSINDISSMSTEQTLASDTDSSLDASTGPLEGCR
Sequence of KDR (human) (P35968 whole entry, looked up): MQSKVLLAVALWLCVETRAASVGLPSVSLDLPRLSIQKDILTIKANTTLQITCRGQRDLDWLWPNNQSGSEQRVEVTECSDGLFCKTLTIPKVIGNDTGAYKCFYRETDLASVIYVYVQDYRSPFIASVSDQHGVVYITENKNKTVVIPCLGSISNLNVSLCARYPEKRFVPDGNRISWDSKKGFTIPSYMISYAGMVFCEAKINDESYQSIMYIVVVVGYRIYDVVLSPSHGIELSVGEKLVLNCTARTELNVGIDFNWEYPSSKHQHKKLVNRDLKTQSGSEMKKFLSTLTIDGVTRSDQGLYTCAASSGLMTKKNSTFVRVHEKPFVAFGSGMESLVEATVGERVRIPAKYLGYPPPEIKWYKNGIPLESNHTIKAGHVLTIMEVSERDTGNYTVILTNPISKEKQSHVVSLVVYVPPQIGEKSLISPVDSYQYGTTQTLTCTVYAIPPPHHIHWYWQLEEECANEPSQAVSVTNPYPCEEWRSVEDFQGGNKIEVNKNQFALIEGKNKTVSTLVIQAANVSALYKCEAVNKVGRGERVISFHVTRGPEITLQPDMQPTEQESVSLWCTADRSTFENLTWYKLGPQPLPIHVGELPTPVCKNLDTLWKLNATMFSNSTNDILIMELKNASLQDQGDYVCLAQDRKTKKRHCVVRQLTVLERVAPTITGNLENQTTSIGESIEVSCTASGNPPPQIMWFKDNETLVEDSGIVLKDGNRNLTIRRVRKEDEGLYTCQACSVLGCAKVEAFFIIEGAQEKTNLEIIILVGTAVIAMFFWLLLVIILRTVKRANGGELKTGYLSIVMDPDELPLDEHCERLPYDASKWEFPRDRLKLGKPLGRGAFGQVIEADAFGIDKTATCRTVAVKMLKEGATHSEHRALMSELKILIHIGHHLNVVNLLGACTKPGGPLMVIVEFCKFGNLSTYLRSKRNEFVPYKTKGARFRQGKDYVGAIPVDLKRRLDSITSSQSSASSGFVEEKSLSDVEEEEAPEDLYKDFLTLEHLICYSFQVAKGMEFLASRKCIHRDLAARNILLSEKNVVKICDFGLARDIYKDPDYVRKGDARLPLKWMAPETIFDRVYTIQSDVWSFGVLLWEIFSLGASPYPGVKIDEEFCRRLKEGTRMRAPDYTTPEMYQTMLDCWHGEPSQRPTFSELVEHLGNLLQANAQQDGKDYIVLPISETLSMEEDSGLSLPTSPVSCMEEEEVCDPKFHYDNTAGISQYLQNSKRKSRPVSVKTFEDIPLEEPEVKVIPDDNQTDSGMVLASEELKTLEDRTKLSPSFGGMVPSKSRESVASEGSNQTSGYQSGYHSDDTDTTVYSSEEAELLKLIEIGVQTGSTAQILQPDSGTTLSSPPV
Sequence of NTRK1 (human) (P04629 whole entry, looked up): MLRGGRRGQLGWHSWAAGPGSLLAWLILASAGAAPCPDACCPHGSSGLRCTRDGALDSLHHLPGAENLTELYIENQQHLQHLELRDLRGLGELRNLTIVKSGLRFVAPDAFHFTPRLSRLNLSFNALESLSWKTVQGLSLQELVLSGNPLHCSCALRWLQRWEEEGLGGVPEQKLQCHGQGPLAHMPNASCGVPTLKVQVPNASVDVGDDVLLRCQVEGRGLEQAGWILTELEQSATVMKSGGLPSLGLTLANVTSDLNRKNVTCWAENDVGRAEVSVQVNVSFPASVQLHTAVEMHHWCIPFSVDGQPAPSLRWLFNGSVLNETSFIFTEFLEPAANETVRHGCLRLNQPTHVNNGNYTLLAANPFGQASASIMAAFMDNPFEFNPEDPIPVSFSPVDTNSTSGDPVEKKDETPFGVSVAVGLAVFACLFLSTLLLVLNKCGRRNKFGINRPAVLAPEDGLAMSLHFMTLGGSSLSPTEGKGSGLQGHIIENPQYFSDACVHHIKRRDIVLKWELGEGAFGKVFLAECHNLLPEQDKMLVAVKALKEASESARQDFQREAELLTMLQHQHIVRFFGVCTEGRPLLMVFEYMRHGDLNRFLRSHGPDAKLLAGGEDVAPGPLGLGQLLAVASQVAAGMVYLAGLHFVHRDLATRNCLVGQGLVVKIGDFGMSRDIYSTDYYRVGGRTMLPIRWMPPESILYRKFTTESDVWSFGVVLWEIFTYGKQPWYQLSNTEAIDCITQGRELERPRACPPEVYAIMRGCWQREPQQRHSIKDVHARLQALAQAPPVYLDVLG
Sequence of LIMK1 (human) (P53667 whole entry, looked up): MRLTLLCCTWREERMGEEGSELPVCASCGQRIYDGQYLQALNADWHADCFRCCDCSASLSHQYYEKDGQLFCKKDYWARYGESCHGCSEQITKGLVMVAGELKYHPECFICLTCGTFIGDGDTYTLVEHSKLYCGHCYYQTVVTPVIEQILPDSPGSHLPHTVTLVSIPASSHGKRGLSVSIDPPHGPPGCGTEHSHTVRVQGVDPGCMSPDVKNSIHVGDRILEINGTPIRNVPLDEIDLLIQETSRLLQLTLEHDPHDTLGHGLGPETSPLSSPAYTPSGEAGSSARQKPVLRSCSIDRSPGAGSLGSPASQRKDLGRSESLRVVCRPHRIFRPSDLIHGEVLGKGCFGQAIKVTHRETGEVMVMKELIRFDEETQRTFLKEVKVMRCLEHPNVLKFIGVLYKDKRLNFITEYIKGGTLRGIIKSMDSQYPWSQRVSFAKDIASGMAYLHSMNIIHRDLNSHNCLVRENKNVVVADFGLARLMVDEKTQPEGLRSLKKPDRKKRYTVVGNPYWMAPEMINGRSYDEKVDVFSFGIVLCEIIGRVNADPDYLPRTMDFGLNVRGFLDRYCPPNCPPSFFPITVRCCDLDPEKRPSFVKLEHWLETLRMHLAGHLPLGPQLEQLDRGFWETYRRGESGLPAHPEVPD
Sequence of TEK (human) (Q02763 whole entry, looked up): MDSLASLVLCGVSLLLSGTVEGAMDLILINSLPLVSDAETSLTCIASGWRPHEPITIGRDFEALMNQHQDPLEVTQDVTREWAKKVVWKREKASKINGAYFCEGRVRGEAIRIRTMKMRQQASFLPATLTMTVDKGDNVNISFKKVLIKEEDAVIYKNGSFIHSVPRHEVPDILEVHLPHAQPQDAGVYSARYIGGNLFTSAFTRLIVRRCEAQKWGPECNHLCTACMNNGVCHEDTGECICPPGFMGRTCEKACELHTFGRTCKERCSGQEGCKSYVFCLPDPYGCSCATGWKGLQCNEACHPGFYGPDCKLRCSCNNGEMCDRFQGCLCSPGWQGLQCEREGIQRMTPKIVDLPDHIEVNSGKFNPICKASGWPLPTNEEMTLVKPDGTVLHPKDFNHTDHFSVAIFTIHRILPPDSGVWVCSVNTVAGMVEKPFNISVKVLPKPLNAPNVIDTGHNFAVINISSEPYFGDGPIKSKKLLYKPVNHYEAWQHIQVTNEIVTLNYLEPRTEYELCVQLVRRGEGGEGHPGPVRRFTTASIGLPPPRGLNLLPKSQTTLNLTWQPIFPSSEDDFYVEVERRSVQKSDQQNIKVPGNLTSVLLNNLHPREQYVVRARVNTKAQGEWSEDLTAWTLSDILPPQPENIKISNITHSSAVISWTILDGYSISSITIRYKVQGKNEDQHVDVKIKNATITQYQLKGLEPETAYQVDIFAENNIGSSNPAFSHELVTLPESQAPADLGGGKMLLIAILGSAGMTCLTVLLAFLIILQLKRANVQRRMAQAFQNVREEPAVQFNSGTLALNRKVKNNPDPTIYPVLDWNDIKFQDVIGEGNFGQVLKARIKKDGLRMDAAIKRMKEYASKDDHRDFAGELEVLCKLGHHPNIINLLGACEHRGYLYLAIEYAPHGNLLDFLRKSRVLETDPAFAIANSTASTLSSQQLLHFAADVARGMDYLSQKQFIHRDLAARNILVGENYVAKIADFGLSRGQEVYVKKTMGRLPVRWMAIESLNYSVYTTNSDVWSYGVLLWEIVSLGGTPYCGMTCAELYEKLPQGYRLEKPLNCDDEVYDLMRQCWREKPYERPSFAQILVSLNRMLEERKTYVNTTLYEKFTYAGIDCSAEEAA

CC(C)n1cnc2c(Nc3cccc(Cl)c3)nc(NCCO)nc21
residual activity (AURKA (human)): 108% | residual activity (PRKCI (human)): 101% | residual activity (MATK (human)): 93.3% | residual activity (JAK2 JH1 JH2 (human)): 101% | residual activity (EPHA8 (human)): 98.2% | residual activity (IKBKB (human)): 102% | residual activity (DMPK (human)): 98.5% | residual activity (MAPK9 (human)): 101% | residual activity (MERTK (human)): 89.7% | residual activity (FGR (human)): 61.5% | residual activity (YES1 (human)): 33.7% | residual activity (TEK (human)): 97.4% | residual activity (PAK4 (human)): 105% | residual activity (PRKCG (human)): 93.6% | residual activity (PIM2 (human)): 97% | residual activity (EPHA1 (human)): 94.1% | residual activity (PTK2 (human)): 68.9% | residual activity (WNK3 (human)): 77.7% | residual activity (DYRK2 (human)): 93.9% | residual activity (BRSK1 (human)): 93.1% | residual activity (FGFR1 (human)): 84.2% | residual activity (NTRK3 (human)): 30.7% | residual activity (GRK4 (human)): 93.5% | residual activity (KIT (human)): 76.3% | residual activity (STK4 (human)): 93.1% | residual activity (MAP2K1 (human)): 92.8% | residual activity (RPS6KA1 KD1 KD2 (human)): 69.1% | residual activity (EPHA2 (human)): 93.3% | residual activity (CAMK2G (human)): 106% | residual activity (KDR (human)): 103% | residual activity (BLK (human)): 91.2% | residual activity (PLK3 (human)): 48.5% | residual activity (FLT1 (human)): 93.4% | residual activity (CDK1 CCNA2 (human)): 78.5% | residual activity (LIMK1 (human)): 105% | residual activity (DAPK2 (human)): 92.8% | residual activity (CHEK2 (human)): 78.5% | residual activity (AXL (human)): 91.3% | residual activity (PAK3 (human)): 96.7% | residual activity (NTRK1 (human)): 98.2% | residual activity (ABL2 (human)): 60.7% | residual activity (CAMK4 (human)): 101%
